Measurements: patent US7858738B2, “Synthetic human peptides and pharmaceutical compositions comprising them for the treatment of systemic lupus erythematosus” (Yeda Research and Development Co., Ltd., priority 2001, dated 2010)

Key:
[1] = test system: (NZB×NZW)F1 mice; test: Transfer of splenocytes of peptide-treated mice into (NZB×NZW)F1 mice with full-blown disease; format: in vivo; conditions: Table 14 (repeat experiment), recipients of 20 × 10^6 spleen cells from treated mice
Text: It was of importance to investigate whether the beneficial effects of treatment with hCDR1, that are manifested by the down-regulation of disease manifestations, can be transferred by spleen cells of treated mice. To this end, we have performed an experiment in which 8-month old (NZB×NZW)F1 mice, that suffer already from the full-blown lupus-like disease, were divided into 2 groups. Group 1 was not treated and mice of group 2 were transferred with 20×10^6 spleen cells of 3-month old (NZB×NZW)F1 mice that were injected 3 times (s.c., every other day) with 300 μg/mouse of hCDR1. All splenocytes were injected intraperitoneally. Mice were tested for anti-dsDNA autoantibody production, disease manifestations, and were sacrificed 4 weeks after cell transfer.
The experiment was repeated a few more times using revhCDR1 as control.

[2] = test system: BALB/c mice; test: Treatment of 16/6Id-induced experimental SLE in BALB/c mice; format: in vivo; conditions: Table 12, 300 μg/mouse weekly
Description: (§1) Induction and treatment of experimental SLE. In order to induce experimental SLE, BALB/c mice were immunized with 1-2 μg of the human mAb 16/6Id and boosted 3 weeks later. For the prevention of experimental SLE, mice were given hCDR1 or hCDR3 (mCDR1 or revmCDR1 as control peptide in Example 12) intravenously (i.v.) or s.c. concomitant with the immunization, and were injected weekly thereafter for 5 weeks. Treatment of an established disease started three and a half months following disease induction with the 16/6Id, when clinical manifestations were already observed. In Example 12, mice received 10 weekly injections (i.v. or s.c.) of mCDR1 or revmCDR1 at a dose of 100 μg/mouse. Prevention and treatment of SLE-like disease in (NZB×NZW)F1 mice with the hCDR1 or mCDR1 peptide. For prevention of SLE, mice at the age of 2 months, before disease manifestations are observed, were injected s.c. with hCDR1 (or mCDR1 in Example 12, 250 μg/mouse) once a week for 10 weeks. To treat an established disease, mice at the age of 5-7 months were injected with hCDR1 (in Example 12, mCDR1 s.c., 250 μg/mouse) once a week for 10 weeks. Proliferative Responses. PBL were isolated from heparinized venous blood by Ficoll-Hypaque (Pharmacia) density-gradient centrifugation. All assays were performed, in triplicate, in flat-bottomed microtiter plates (Falcon, Becton Dickinson, Oxmard, Calif., USA) in which 2×10^5 PBL were cultured in enriched RPMI-1640 as described (Dayan et al., 2000). The PBL were exposed to various concentrations (0.1-40 μg/well) of the human anti-DNA 16/6Id mAb with and without the addition of the various CDR-based peptides at a concentration of at least 10-fold excess over that of the 16/6Id. Phytohemagglutinin (PHA; 2 μg/well) was used as a control for culture conditions at each experiment. The cultures were incubated in 7.5% CO2 at 37° C. for 6 days. Eighteen hours before the cells were harvested, [^3H]-thymidine (0.5μ Ci of 5 Ci/mmol) (Nuclear Research Center, Negev, Israel) was added to all cultures. Results are expressed as the mean thymidine incorporation in counts per minute (CPM) of triplicate culture±SD, or as stimulation index (S.I.; the ratio of mean CPM at the optimal concentration of the human 16/6Id to the mean CPM in the presence of medium alone). A S.I.≧2 was considered a positive response (Dayan et al., 2000). Inhibition (the ratio of mean CPM in the presence of the 16/6Id and various CDR-based peptides to the mean CPM with the 16/6Id without the CDR-based peptide) above 50% was considered positive. Induction of Cytokine Production. Mice that were immunized with the human 16/6Id mAb and either treated or not with the CDR-based peptide, were killed at different periods during or after treatment with the peptide. Splenocytes and lymph node cells (LNC) were harvested and incubated (5×10^6/ml) in the presence of the 16/6Id. Supernatants were collected after 48 and 72 h. Assessment of Cytokines in the Supernatants. Supernatants were collected 48 hours following the initiation of the cultures and stored at −70° C. Measurements of IL-2, IL-10, IFN-γ, and TNF-α were performed by ELISA by using the relevant standards, capture and detecting Abs (Pharmingen) according to the manufacturer's instructions. TGF-β was determined by an ELISA. Briefly, plates were coated with the recombinant human TGF-β1 sRIII/Fc chimera (R & D Systems Inc., Minneapolis, Minn., USA), and the second Ab used was the biotinylated anti-human TGF-β1 antibody (R & D Systems Inc.). The substrate solution used was TMB color Reagent (Helix Diagnostics, West Sacramento, Calif.), and enzyme activity was evaluated by using 570- and 630-nm filters. Detection of SLE-Associated Clinical and Pathological Manifestations. Proteinuria was measured semiquantitatively by using Combistix kit (Ames Division, Bayer Diagnostics, Newbury, U.K.). White blood cells (WBC, for leukopenia) were counted after a 10-fold dilution of heparinized blood in distilled water containing 1% acetic acid (vol/vol). […]

[3] = test system: (NZB×NZW)F1 mice; test: Treatment of established SLE-like disease in (NZB×NZW)F1 mice; format: in vivo; conditions: 300 μg/mouse, age 7 months
Description: as §1

[4] = test system: MMP-9; test: MMP-9 activity in sera of 16/6Id immunized BALB/c mice; format: in vivo; conditions: prevention and treatment protocols, 100 μg/mouse; FIG. 21B
Description: (§2) Induction and treatment of experimental SLE. In order to induce experimental SLE, BALB/c mice were immunized with 1-2 μg of the human mAb 16/6Id and boosted 3 weeks later. For the prevention of experimental SLE, mice were given hCDR1 or hCDR3 (mCDR1 or revmCDR1 as control peptide in Example 12) intravenously (i.v.) or s.c. concomitant with the immunization, and were injected weekly thereafter for 5 weeks. Treatment of an established disease started three and a half months following disease induction with the 16/6Id, when clinical manifestations were already observed. In Example 12, mice received 10 weekly injections (i.v. or s.c.) of mCDR1 or revmCDR1 at a dose of 100 μg/mouse. Prevention and treatment of SLE-like disease in (NZB×NZW)F1 mice with the hCDR1 or mCDR1 peptide. For prevention of SLE, mice at the age of 2 months, before disease manifestations are observed, were injected s.c. with hCDR1 (or mCDR1 in Example 12, 250 μg/mouse) once a week for 10 weeks. To treat an established disease, mice at the age of 5-7 months were injected with hCDR1 (in Example 12, mCDR1 s.c., 250 μg/mouse) once a week for 10 weeks. Proliferative Responses. PBL were isolated from heparinized venous blood by Ficoll-Hypaque (Pharmacia) density-gradient centrifugation. […] Results are expressed as the mean thymidine incorporation in counts per minute (CPM) of triplicate culture±SD, or as stimulation index (S.I.; the ratio of mean CPM at the optimal concentration of the human 16/6Id to the mean CPM in the presence of medium alone). […] TGF-β was determined by an ELISA. […] The substrate solution used was TMB color Reagent (Helix Diagnostics, West Sacramento, Calif.), and enzyme activity was evaluated by using 570- and 630-nm filters. […] Proteinuria was measured semiquantitatively by using Combistix kit (Ames Division, Bayer Diagnostics, Newbury, U.K.). White blood cells (WBC, for leukopenia) were counted after a 10-fold dilution of heparinized blood in distilled water containing 1% acetic acid (vol/vol). […]

[5] = test system: MMP-3; test: MMP-3 levels in sera of 16/6Id immunized BALB/c mice (Western blot); format: in vivo; conditions: prevention and treatment protocols, 100 μg/mouse; FIG. 21A
Description: as §2, with “peptide.” for “peptide. For prevention of SLE, mice at the age of 2 months, before disease manifestations are observed, were injected s.c. with hCDR1 (or mCDR1 in Example 12, 250 μg/mouse) once a week for 10 weeks. To treat an established disease, mice at the age of 5-7 months were injected with hCDR1 (in Example 12, mCDR1 s.c., 250 μg/mouse) once a week for 10 weeks. Proliferative Responses. PBL were isolated from heparinized venous blood by Ficoll-Hypaque (Pharmacia) density-gradient centrifugation.”, “U.K.).” for “U.K.). White blood cells (WBC, for leukopenia) were counted after a 10-fold dilution of heparinized blood in distilled water containing 1% acetic acid (vol/vol).”

[6] = test system: PBL of SLE patients; test: Proliferative response of PBL of SLE patients to the human 16/6Id mAb; format: cell-based; conditions: PBL of one SLE patient; FIG. 7; reversed murine peptides as controls
Description: as §1

[7] = test system: MMP-9; test: MMP-9 activity in sera of (NZB×NZW)F1 mice (gel zymography); format: in vivo; conditions: treatment of sick mice; FIG. 20B right
Description: as §1, with “A S.I.≧2 was considered a positive response (Dayan et al., 2000). Inhibition (the ratio of mean CPM in the presence of the 16/6Id and various CDR-based peptides to the mean CPM with the 16/6Id without the CDR-based peptide) above 50% was considered positive. Induction of Cytokine Production. Mice that were immunized with the human 16/6Id mAb and either treated or not with the CDR-based peptide, were killed at different periods during or after treatment with the peptide. Splenocytes and lymph node cells (LNC) were harvested and incubated (5×10^6/ml) in the presence of the 16/6Id. Supernatants were collected after 48 and 72 h. Assessment of Cytokines in the Supernatants. Supernatants were collected 48 hours following the initiation of the cultures and stored at −70° C. Measurements of IL-2, IL-10, IFN-γ, and TNF-α were performed by ELISA by using the relevant standards, capture and detecting Abs (Pharmingen) according to the manufacturer's instructions.” left out, “Briefly, plates were coated with the recombinant human TGF-β1 sRIII/Fc chimera (R & D Systems Inc., Minneapolis, Minn., USA), and the second Ab used was the biotinylated anti-human TGF-β1 antibody (R & D Systems Inc.).” left out, “Detection of SLE-Associated Clinical and Pathological Manifestations.” left out

| Sequence | I.C.D ± SEM ([1]; non-treated 2.3 ± 0.26) | Proteinuria g/L ± SEM ([1]; non-treated 10.9 ± 3.05) [g/L] | Anti-dsDNA antibodies 1:1250, Mean ± SD ([2]; 16/6Id alone 0.47 ± 0.3) | Proteinuria g/l, Mean ± SD ([2]; 16/6Id alone 0.58 ± 0.34) [g/L] | Anti-16/6 Id antibodies 1:10000, Mean ± SD ([2]; 16/6Id alone 0.89 ± 0.1) | Intensity of ICD in kidneys, Mean ± SD ([2]; 16/6Id alone 1.6 ± 0.55) | WBC/mm^3, Mean ± SD ([2]; 16/6Id alone 2800 ± 300) | Proteinuria g/L ± SEM ([3]; following treatment No 5, untreated 2.65 ± 1.76) [g/L] | Proteinuria g/L ± SEM ([3]; following treatment No 7, untreated 3.89 ± 2.73) [g/L] | Proteinuria g/L ± SEM ([3]; following treatment No 9, untreated 7.55 ± 3.95) [g/L] | MMP-9 activity in sera [4] | levels of MMP-3 in sera [5] | inhibition of the proliferative responses of PBL to human 16/6Id mAb [6] | activity of MMP-9 in the sera [7] |
| --- | --- | --- | --- | --- | --- | --- | --- | --- | --- | --- | --- | --- | --- | --- |
| GIWEEGKGPPQRIWSWYYG (Synthetic peptide prepared in the reversed order of SEQ ID NO 6.) [revhCDR1, control peptide synthesized in the reversed order of hCDR1, reference compound] | 1.7 ± 0.23 | 5.38 ± 2.34 | 0.35 ± 0.3 | 0.8 ± 0.3 | 0.95 ± 0.13 | 0.85 ± 0.75 | 4180 ± 831 /mm^3 | 6.94 ± 2.53 | 6.76 ± 2.91 | 5.99 ± 3.08 | – | – | – | – |
| GIWELSKEPSQKVWQMYYGT (Synthetic peptide prepared in the reversed order of SEQ ID NO 1.) [revmCDR1, control peptide synthesized in the reversed order of mCDR1] | – | – | – | – | – | – | – | – | – | – | did not affect | did not affect | failed to inhibit significantly | not |
